Experimental data reported in US8957096B2, “Herbicidally active oxime-ether-substituted benzoylamides” (Bayer Intellectual Property GmbH, priority 2011, dated 2015).

Experiments:
Type in all cases: in vivo
[1] = tested on: Abuthilon theophrasti; assay: Post-emergence herbicidal action against harmful plants; conditions: 504 h, application rate 80 g/ha, assessed visually after about 3 weeks vs untreated controls, read-out: herbicidal action in percent (%)
Protocol: (§1) 2. Post-Emergence Herbicidal Action Against Harmful Plants Seeds of monocotyledonous and dicotyledonous weed and crop plants are placed in sandy loam in wood-fiber pots, covered with soil and cultivated in a greenhouse under good growth conditions. 2 to 3 weeks after sowing, the test plants are treated at the one-leaf stage. The inventive compounds formulated in the form of wettable powders (WP) or as emulsion concentrates (EC) are then sprayed onto the green parts of the plants as an aqueous suspension or emulsion at a water application rate of 600 to 800 l/ha (converted) with addition of 0.2% wetting agent. After the test plants have been left to stand in the greenhouse under optimal growth conditions for about 3 weeks, the action of the formulations is assessed visually in comparison to untreated controls (herbicidal action in percent (%): 100% activity=the plants have died, 0% activity=like control plants). Here, the compounds Nos. 1-001, 1-002, 1-004, 1-005, 1-007, 1-008, 1-014, 1-015, 1-017, 1-018, 1-020, 1-033, 1-040, 1-041, 1-043, 1-044, 1-046, 1-047, 1-053, 1-054, 1-056, 1-057, 1-059, 1-060, 1-079, 1-080, 1-082, 1-083, 1-086, 1-092, 1-093, 1-095, 1-096, 1-098, 1-099, 2-015, 3-014, 3-015, 3-017, 3-018, 3-020, 5-082, 5-095, 6-017, 7-017 and 8-014 each show, at an application rate of 80 g/ha, an activity of at least 80% against Abuthilon theophrasti, Amaranthus retroflexus and Stellaria media. The compounds Nos. 4-092, 4-093, 5-004, 5-017, 5-043 and 5-056 each show, at an application rate of 80 g/ha, an activity of at least 80% against Echinocloa crus galli, Pharbitis purpureum and Stellaria media.

[2] = tested on: Amaranthus retroflexus; assay: as above; conditions: 504 h, application rate 80 g/ha, assessed visually after about 3 weeks vs untreated controls, read-out: herbicidal action in percent (%)
Protocol: as §1

[3] = tested on: Stellaria media; assay: as above; conditions: 504 h, application rate 80 g/ha, assessed visually after about 3 weeks vs untreated controls, read-out: herbicidal action in percent (%)
Protocol: as §1

[4] = tested on: Setaria viridis; assay: Pre-emergence herbicidal action against harmful plants; conditions: 504 h, application rate 320 g/ha, assessed visually after 3 weeks vs untreated controls, read-out: herbicidal activity in percent (%)
Source text: (§2) 1. Pre-Emergence Herbicidal Action Against Harmful Plants Seeds of monocotyledonous and dicotyledonous weed plants and crop plants are placed in wood-fiber pots in sandy loam and covered with soil. The compounds according to the invention, formulated in the form of wettable powders (WP) or as emulsion concentrates (EC), are then applied as aqueous suspension or emulsion at a water application rate of 600 to 800 l/ha (converted) with the addition of 0.2% of wetting agent to the surface of the covering soil. After the treatment, the pots are placed in a greenhouse and kept under good growth conditions for the test plants. The damage to the test plants is assessed visually after a test period of 3 weeks by comparison with untreated controls (herbicidal activity in percent (%): 100% activity=the plants have died, 0% activity=like control plants). Here, the compounds Nos. 1-002, 1-004, 1-007, 1-008, 1-043, 1-044, 1-046, 1-047, 1-060, 1-079, 1-080, 1-082, 1-083, 1-085, 1-095, 1-096, 1-098, 1-099, 1-059, 2-015, 3-015, 3-018, 3-020, 4-001, 4-118, 5-004, 5-017, 5-043, 5-056, 5-082, 5-095, 6-017, 7-017, 8-017 and 8-014, for example, each show, at an application rate of 320 g/ha, an activity of at least 80% against Abuthilon theophrasti and Amaranthus retroflexus. The compounds Nos. 1-001, 1-005, 1-014, 1-015, 1-017, 1-018, 1-020, 1-033, 1-040, 1-041, 1-053, 1-054, 1-056, 1-057, 1-092, 1-093, 3-014, 3-015, 8-014, 8-017 and 8-015 each show, at an application rate of 320 g/ha, an activity of at least 80% against Setaria viridis and Stellaria media. The compounds Nos. 3-017, 4-092 and 6-004 show, at an application rate of 320 g/ha, an activity of at least 80% against Amaranthus retroflexus and Veronica persica.

[5] = tested on: Stellaria media; assay: as above; conditions: 504 h, application rate 320 g/ha, assessed visually after 3 weeks vs untreated controls, read-out: herbicidal activity in percent (%)
Source text: as §2

[6] = tested on: Abuthilon theophrasti; assay: as above; conditions: 504 h, application rate 320 g/ha, assessed visually after 3 weeks vs untreated controls, read-out: herbicidal activity in percent (%)
Source text: as §2

[7] = tested on: Amaranthus retroflexus; assay: as above; conditions: 504 h, application rate 320 g/ha, assessed visually after 3 weeks vs untreated controls, read-out: herbicidal activity in percent (%)
Source text: as §2

CCn1nnnc1NC(=O)c1ccc(S(C)(=O)=O)c(/C=N/OC)c1Cl [1-053]
≥ 80%: pest or weed control at 80 g/ha [1] | pest or weed control at 80 g/ha [2] | pest or weed control at 80 g/ha [3] | pest or weed control at 320 g/ha [4] | pest or weed control at 320 g/ha [5]

CC(C)=NOCc1c(S(C)(=O)=O)ccc(C(=O)Nc2nonc2C)c1Cl [7-017]
≥ 80%: pest or weed control at 80 g/ha [1] | pest or weed control at 80 g/ha [2] | pest or weed control at 80 g/ha [3] | pest or weed control at 320 g/ha [6] | pest or weed control at 320 g/ha [7]

CCCn1nnnc1NC(=O)c1ccc(Cl)c(/C=N/OCC)c1Cl [1-080]
≥ 80%: pest or weed control at 80 g/ha [1] | pest or weed control at 80 g/ha [2] | pest or weed control at 80 g/ha [3] | pest or weed control at 320 g/ha [6] | pest or weed control at 320 g/ha [7]

CC(C)=NOCc1c(Cl)ccc(C(=O)Nc2ncnn2C)c1Cl [6-004]
≥ 80%: pest or weed control at 320 g/ha [7]

CO/N=C/c1c(Cl)ccc(C(=O)Nc2nnnn2C)c1Cl [1-001]
≥ 80%: pest or weed control at 80 g/ha [1] | pest or weed control at 80 g/ha [2] | pest or weed control at 80 g/ha [3] | pest or weed control at 320 g/ha [4] | pest or weed control at 320 g/ha [5]

CCCn1nnnc1NC(=O)c1ccc(S(C)(=O)=O)c(/C=N/OC)c1Cl [1-092]
≥ 80%: pest or weed control at 80 g/ha [1] | pest or weed control at 80 g/ha [2] | pest or weed control at 80 g/ha [3] | pest or weed control at 320 g/ha [4] | pest or weed control at 320 g/ha [5]

CC(C)=NOCc1c(S(C)(=O)=O)ccc(C(=O)Nc2ncnn2C)c1Cl [6-017, 2-chloro-4-(methylsulfonyl)-N-(1-methyl-1H-1,2,4-triazol-5-yl)-3-{[(propan-2-ylideneamino)oxy]methyl}benzamide]
≥ 80%: pest or weed control at 80 g/ha [1] | pest or weed control at 80 g/ha [2] | pest or weed control at 80 g/ha [3] | pest or weed control at 320 g/ha [6] | pest or weed control at 320 g/ha [7]

CCO/N=C/c1c(S(C)(=O)=O)ccc(C(=O)Nc2ncnn2C)c1Cl [2-015]
≥ 80%: pest or weed control at 80 g/ha [1] | pest or weed control at 80 g/ha [2] | pest or weed control at 80 g/ha [3] | pest or weed control at 320 g/ha [6] | pest or weed control at 320 g/ha [7]

C#CCON=Cc1c(S(C)(=O)=O)ccc(C(=O)Nc2nnnn2CC)c1Cl [1-057, 2-chloro-N-(1-ethyl-1H-tetrazol-5-yl)-4-(methylsulfonyl)-3-{[(prop-2-yn-1-yloxy)imino]methyl}benzamide]
≥ 80%: pest or weed control at 80 g/ha [1] | pest or weed control at 80 g/ha [2] | pest or weed control at 80 g/ha [3] | pest or weed control at 320 g/ha [4] | pest or weed control at 320 g/ha [5]

CO/N=C/c1c(Cl)ccc(C(=O)Nc2nnc(C)o2)c1Cl [4-001]
≥ 80%: pest or weed control at 320 g/ha [6] | pest or weed control at 320 g/ha [7]

CCn1nnnc1NC(=O)c1ccc(Cl)c(/C=N/OC)c1Cl [1-040]
≥ 80%: pest or weed control at 80 g/ha [1] | pest or weed control at 80 g/ha [2] | pest or weed control at 80 g/ha [3] | pest or weed control at 320 g/ha [4] | pest or weed control at 320 g/ha [5]

CC(C)=NOCc1c(S(C)(=O)=O)ccc(C(=O)Nc2nnnn2C)c1Cl [5-017]
≥ 80%: pest or weed control at 80 g/ha [3] | pest or weed control at 320 g/ha [6] | pest or weed control at 320 g/ha [7]

CCn1nnnc1NC(=O)c1ccc(S(C)(=O)=O)c(CON=C(C)C)c1Cl [5-056]
≥ 80%: pest or weed control at 80 g/ha [3] | pest or weed control at 320 g/ha [6] | pest or weed control at 320 g/ha [7]

CC=NOCc1c(S(C)(=O)=O)ccc(C(=O)Nc2nnc(C)o2)c1Cl [8-015]
≥ 80%: pest or weed control at 320 g/ha [4] | pest or weed control at 320 g/ha [5]

CCO/N=C/c1c(S(C)(=O)=O)ccc(C(=O)Nc2nnnn2CC)c1Cl [1-054]
≥ 80%: pest or weed control at 80 g/ha [1] | pest or weed control at 80 g/ha [2] | pest or weed control at 80 g/ha [3] | pest or weed control at 320 g/ha [4] | pest or weed control at 320 g/ha [5]

CCCn1nnnc1NC(=O)c1ccc(S(C)(=O)=O)c(CON=C(C)C)c1Cl [5-095]
≥ 80%: pest or weed control at 80 g/ha [1] | pest or weed control at 80 g/ha [2] | pest or weed control at 80 g/ha [3] | pest or weed control at 320 g/ha [6] | pest or weed control at 320 g/ha [7]

CCCn1nnnc1NC(=O)c1ccc(Cl)c(CON=C(C)C)c1Cl [5-082]
≥ 80%: pest or weed control at 80 g/ha [1] | pest or weed control at 80 g/ha [2] | pest or weed control at 80 g/ha [3] | pest or weed control at 320 g/ha [6] | pest or weed control at 320 g/ha [7]

CC(C)=NOCc1c(Cl)ccc(C(=O)Nc2nnnn2C)c1Cl [5-004]
≥ 80%: pest or weed control at 80 g/ha [3] | pest or weed control at 320 g/ha [6] | pest or weed control at 320 g/ha [7]

CCO/N=C/c1c(Cl)ccc(C(=O)Nc2nnnn2CC)c1Cl [1-041]
≥ 80%: pest or weed control at 80 g/ha [1] | pest or weed control at 80 g/ha [2] | pest or weed control at 80 g/ha [3] | pest or weed control at 320 g/ha [4] | pest or weed control at 320 g/ha [5]

CCO/N=C/c1c(S(C)(=O)=O)ccc(C(=O)Nc2nnnn2C)c1Cl [1-015]
≥ 80%: pest or weed control at 80 g/ha [1] | pest or weed control at 80 g/ha [2] | pest or weed control at 80 g/ha [3] | pest or weed control at 320 g/ha [4] | pest or weed control at 320 g/ha [5]

CCn1nnnc1NC(=O)c1ccc(Cl)c(CON=C(C)C)c1Cl [5-043]
≥ 80%: pest or weed control at 80 g/ha [3] | pest or weed control at 320 g/ha [6] | pest or weed control at 320 g/ha [7]

CCCn1nnnc1NC(=O)c1ccc(Cl)c(/C=N/OC)c1Cl [1-079]
≥ 80%: pest or weed control at 80 g/ha [1] | pest or weed control at 80 g/ha [2] | pest or weed control at 80 g/ha [3] | pest or weed control at 320 g/ha [6] | pest or weed control at 320 g/ha [7]

CCO/N=C/c1c(Cl)ccc(C(=O)Nc2nnnn2C)c1Cl [1-002]
≥ 80%: pest or weed control at 80 g/ha [1] | pest or weed control at 80 g/ha [2] | pest or weed control at 80 g/ha [3] | pest or weed control at 320 g/ha [6] | pest or weed control at 320 g/ha [7]
